Experimental data reported in BigSolDB 2.1.

C=C[C@]1(C)C[C@@H](OC(=O)CSCCN(CC)CC)[C@]2(C)[C@H](C)CC[C@]3(CCC(=O)[C@H]32)[C@@H](C)[C@@H]1O.O=C(O)/C=C/C(=O)O
solubility (mole fraction)
Conditions	283.15 K	293.15 K	303.15 K	313.15 K	323.15 K
in MIBK	0.000867	0.00108	0.00134	0.00191	0.00254
in acetone	0.00132	0.00257	0.00377	0.00574	0.00861
in acetonitrile	8.33e-05	0.00016	0.000235	0.000495	0.000993
in ethyl acetate	0.000525	0.000719	0.00102	0.00147	0.00215
in isobutyl acetate	0.000437	0.000574	0.000744	0.00103	0.00143
in isopropanol	0.00103	0.00124	0.00173	0.00288	0.00466
in isopropyl acetate	0.00044	0.00061	0.000823	0.00118	0.00163
in methyl acetate	0.000372	0.000443	0.000624	0.000964	0.00142
in n-butanol	0.00276	0.00458	0.00596	0.00962	0.0173
in n-butyl acetate	0.000517	0.000712	0.001	0.0013	0.00168
in toluene	5.73e-05	9.62e-05	0.000174	0.000274	0.000537
